Experimental data published in PMC10976095 (Vaccines, 2024).
Where a SMILES comes first, the peptide text is derived from it.

Legend:
Test in all cases: biochemical
Assay type in all cases: binding
HLA-B*07:02 = HLA-B*07:02 (Homo sapiens, UniProt P01889)
HLA-B*08:01 = HLA-B*08:01 (Homo sapiens, UniProt P01889, A93T/A95T/D138N/E176V/E187T/K202T/Q94N/R180D/S35A/V36M/Y33D/Y91F)
HLA-A*03:01 = HLA-A*03:01 (Homo sapiens, UniProt P04439)
HLA-A*11:01 = HLA-A*11:01 (Homo sapiens, UniProt P04439, A114D/D185E/E176A/F33Y/L180Q/S129P/T187R)
HLA-A*68:01 = HLA-A*68:01 (Homo sapiens, UniProt P04439, A269V/D185E/E176V/E277Q/E87N/F33Y/G231S/I121M/I166T/I218V/L180W/L300P/L318F/N151K/P208A/P217A/Q86R/R169H/T345S)
HLA-A*30:01 = HLA-A*30:01 (Homo sapiens, UniProt P04439, D140H/D185E/E176W/F33S/G80R/H175R/K168Q/R138E/R41S)
HLA-A*31:01 = HLA-A*31:01 (Homo sapiens, UniProt P04439, A270S/D185E/E176V/E277Q/F33T/G231S/G80R/H175R/I121M/I218V/I322F/K168Q/L300P/L318F/M331R/P217A/Q94H/R138Q/T323A/T345S/T97I/V358M)
HLA-B*15:01 = HLA-B*15:01 (Homo sapiens, UniProt P01889, A329T/A93T/A95T/C349S/D201E/D98Y/E187L/E204Q/E69M/E70A/K202T/N87E/Q94N/R155S/R180W/S121R/S35A/S48A/V306I/V36M/Y140S/Y91S)
HLA-A*32:01 = HLA-A*32:01 (Homo sapiens, UniProt P04439, A270S/D101S/D185E/E176V/E277Q/F133L/G103R/G107R/G231S/H175R/I121M/I218V/I322F/K168Q/L105A/L300P/L318F/M331R/P208A/P217A/Q94H/R106L/R138Q/S129P/T104I/T323A/T345S/V100E/V321M/V358M)
HLA-A*30:02 = HLA-A*30:02 (Homo sapiens, UniProt P04439, D101N/D140H/D185E/E176R/F33S/G80R/H175R/K168Q/Q94H/R138E/R41S/V100E)
HLA-B*27:05 = HLA-B*27:05 (Homo sapiens, UniProt P01889, D138H/D201E/E176V/E204Q/G107R/H137Y/K202T/N104T/N87E/Q56L/Q94K/R106L/R155S/R180L/S101D/S121N/S48T/Y140D/Y33H/Y91C)
HLA-A*26:01 = HLA-A*26:01 (Homo sapiens, UniProt P04439, A114D/A173T/A270S/D101N/D185E/E277Q/E87N/F33Y/G231S/I121R/I218V/K168Q/L180W/L300P/L318F/P208A/P217A/Q86R/Q94H/R138Q/S129P/T187R/T323A/T345S/V100A/V358M)
HLA-A*68:02 = HLA-A*68:02 (Homo sapiens, UniProt P04439, A269V/D140Y/D185E/E176V/E277Q/E87N/F33Y/G231S/I121R/I166T/I218V/L180W/L300P/L318F/N151K/P208A/P217A/Q86R/R138H/R169H/S129P/T345S/V36M)

**Q.** Which IC50 (HLA-B*07:02) does the source give for CC(C)C[C@H](NC(=O)[C@H](CC(N)=O)NC(=O)[C@H](CC(C)C)NC(=O)[C@@H](NC(=O)[C@H](CCCNC(=N)N)NC(=O)[C@H](C)NC(=O)[C@H](Cc1ccccc1)NC(=O)[C@@H]1CCCN1C(=O)[C@H](C)N)C(C)C)C(=O)O [AL9] (H-APFARVLNL-OH) here?
**A.** Its IC50 is 0.21 nM.

**Q.** What about the IC50 (HLA-B*08:01) of the same molecule?
**A.** Its IC50 is 67 nM.

**Q.** For CC(C)C[C@H](NC(=O)[C@H](CO)NC(=O)[C@H](CS)NC(=O)[C@H](Cc1ccccc1)NC(=O)[C@H](CO)NC(=O)[C@@H](N)CC(C)C)C(=O)N[C@@H](Cc1ccccc1)C(=O)N[C@@H](CC(C)C)C(=O)N1CCC[C@H]1C(=O)N[C@@H](CCCCN)C(=O)O (H-LSFCSLFLPK-OH), which IC50 (HLA-A*03:01) is on record?
**A.** Its IC50 is 4.3 nM.

**Q.** What about the IC50 (HLA-A*11:01) of the same molecule?
**A.** The IC50 was 0.68 nM.

**Q.** And the IC50 (HLA-A*68:01)?
**A.** The IC50 was 1 nM.

**Q.** And the IC50 (HLA-A*30:01)?
**A.** The IC50 was 238 nM.

**Q.** What about the IC50 (HLA-A*31:01) of the same molecule?
**A.** The IC50 was 686 nM.

**Q.** For CC(C)[C@H](NC(=O)[C@H](CCC(=O)O)NC(=O)[C@H](CC(N)=O)NC(=O)[C@H](CCCCN)NC(=O)[C@@H](NC(=O)[C@@H](N)CCCCN)C(C)C)C(=O)N[C@@H](C)C(=O)N[C@@H](CO)C(=O)N[C@@H](Cc1ccccc1)C(=O)O [KF9] (H-KVKNEVASF-OH), which IC50 (HLA-B*15:01) is on record?
**A.** The IC50 was 5.6 nM.

**Q.** What about the IC50 (HLA-A*32:01) of the same molecule?
**A.** The IC50 was 2.9 nM.

**Q.** And the IC50 (HLA-A*30:02)?
**A.** The IC50 was 158 nM.

**Q.** CC[C@H](C)[C@H](NC(=O)[C@H](CC(C)C)NC(=O)[C@@H](N)CC(C)C)C(=O)N[C@H](C(=O)N[C@@H](CCCCN)C(=O)N[C@H](C(=O)N[C@H](C(=O)N[C@@H](CC(C)C)C(=O)O)C(C)C)[C@@H](C)O)C(C)C [reference compound] (H-LLIVKTVL-OH) was tested. Which IC50 (HLA-B*08:01) did it give?
**A.** The IC50 was 6.1 nM.

**Q.** CC[C@H](C)[C@H](NC(=O)[C@H](CC(C)C)NC(=O)[C@H](CC(C)C)NC(=O)CNC(=O)[C@H](CO)NC(=O)[C@H](Cc1ccccc1)NC(=O)[C@H](CCCNC(=N)N)NC(=O)[C@@H](NC(=O)[C@@H](N)CCC(N)=O)[C@@H](C)O)C(=O)N[C@H](C(=O)O)C(C)C (H-QTRFSGLLIV-OH) was tested. Which IC50 (HLA-B*15:01) did it give?
**A.** Its IC50 is 4680 nM.

**Q.** What about the IC50 (HLA-A*30:01) of the same molecule?
**A.** The IC50 was 421 nM.

**Q.** What about the IC50 (HLA-B*27:05) of the same molecule?
**A.** Its IC50 is 533 nM.

**Q.** With CC(C)C[C@H](NC(=O)[C@H](C)NC(=O)[C@H](CCC(N)=O)NC(=O)[C@H](CCCCN)NC(=O)[C@H](Cc1ccccc1)NC(=O)[C@H](CO)NC(=O)[C@H](C)NC(=O)[C@@H](NC(=O)[C@@H](N)CCC(=O)O)C(C)C)C(=O)O [EVASFKQAL] (H-EVASFKQAL-OH) as the molecule, how does the IC50 (HLA-B*07:02) read?
**A.** The IC50 was 250 nM.

**Q.** And the IC50 (HLA-A*26:01)?
**A.** The IC50 was 86 nM.

**Q.** And the IC50 (HLA-A*68:02)?
**A.** Its IC50 is 2.7 nM.
